US20230175195A1, “PLASMA COATING TREATMENT METHOD FOR INHIBITING BIOLOGICAL PATHOGEN TRANSFER” (MOLECULAR PLASMA GROUP S.A., priority 2020, published 2023)
Like-named read-outs stand apart in the source and are kept apart here.

Key:
Bacteriophage MS2 = assay: Viral load reduction test per ASTM E2721-16 with MS2 instead of Influenza A, on plasma-coated substrate; assay type: cell-based
[1] = test system: Staphylococcus aureus (gram-positive); assay: Quantitative antibacterial activity test of treated materials (OECD guideline, ISO 22197/20743), gram-positive; assay type: cell-based, S. aureus ATCC6538P
[2] = test system: Escherichia coli (gram-negative); assay: Quantitative antibacterial activity test of treated materials (OECD guideline, ISO 22197/20743), gram-negative
From the text: The coatings in the tests described below were obtained using a PlasmaSpot® by Molecular Plasma Technology, using a power around 100 W (but any power between 60-450 W can work), a voltage about 15 kV (but any voltage between 5 and 25 kV seems to work), a frequency about 60 kHz, plasma gas N2, (but also N2, He, Ar, even air and mixtures thereof can be used), a plasma gas flowabout 100 slm (but any plasma flow between 10 and 250 slm can be used), the precursor injected as aerosol (but a liquid precursor, gas precursor, a mixture of liquids, solutions, dispersions, etc . . . also work well), a working distance about 8 mm (but any working distance between 1 and 20 mm seems to work), a temperature about room temperature.
Further tests were performed to illustrate antibacterial behaviour. Tests were performed on a polypropylene nonwoven (PPNW) substrate having a density of 25 g/m^2, which is commonly used as the outer layer of a surgical face mask, and on the synthetic textile Tyvek®.
Droplets containing bacterial suspension are placed on the treated material and evaluated after an incubation period. After the incubation, the bacteria are recovered from the tested material by washing it with a recovery medium. This recovery medium is then analysed for presence of the pathogen by incubation of the recovery medium on agar plates.
The bacteriae used in the testing were Staphylococcus aureus (gram-positive) and Escherichia coli (gram-negative).
The test is based on the international standard given by OECD guidelines for testing of chemicals based on ISO standards 22197/20743: Quantitative method for evaluating antibacterial activity of porous and non-porous antibacterial treated materials.

[3] = plasma coating of the precursor on Tyvek substrate, MS2 phages, LOD = limit of detection
[4] = plasma coating on PPNW substrate (polypropylene nonwoven, 25 g/m^2)
[5] = plasma coating on synthetic textile substrate (Tyvek)

| Compound | LOG Reduction (Bacteriophage MS2; [3]) | % Gram+ bacteria reduced [1, 4] [%] | Gram+ log reduction [1, 4] | % Gram+ bacteria reduced [1, 5] [%] | Gram+ log reduction [1, 5] | % Gram− bacteria reduced [2, 4] [%] | Gram− log reduction [2, 4] | % Gram− bacteria reduced [2, 5] [%] | Gram− log reduction [2, 5] | LOG Reduction (Bacteriophage MS2) |
| --- | --- | --- | --- | --- | --- | --- | --- | --- | --- | --- |
| CCCCCCCCCCCCCCCCCC[N+](C)(C)CCC[Si](OC)(OC)OC.[Cl-] [SiQAM, Dimethyloctadecyl[3-(trimethoxysilyl)propyl] ammonium chloride] | 1.56 | >99.994 | >4.2 | >99.95 | >3.3 | >99.9996 | >5.4 | >98.7 | >1.9 |  |
| Benzalkonium chloride |  | >99.994 | >4.2 | >99.5 | >3.3 | 99.9996 | 5.4 | 98.7 | 1.9 | >3.8 (LOD) |
| Citric Acid | >5.0 (LOD) | >99.995 | >4.3 | >99.98 | >3.8 | >99.999 | >5.0 | 97.5 | 1.6 |  |
| PVP-I2 Poly(vinylpyrrolidone)-Iodine complex [reference compound] |  | >99.994 | >4.2 |  |  | >99.9996 | >5.4 |  |  |  |
